Experimental data published in the supplement of paper PMC10627819.

Legend:
Assay in all cases: fitness (endpoint OD595 vs no drug) (fraction); higher = more growth
B. subtilis 168 = system: B. subtilis 168
Method in brief: (§1)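 Fitness expresses the optical density reached at the stationary-phase transition as a fraction of the robust mean of no-drug control wells. It is capped at 1. Measurements were OD595 every 30 min for 14 h at 37 °C after inoculation of 384-well plates at OD595 0.01 (30 µl, or 55 µl for S. pneumoniae), minus the first reading.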

S. aureus DSM 20231 = system: S. aureus DSM 20231
Method in brief: as §1

S. pneumoniae D39V = system: S. pneumoniae D39V
Method in brief: as §1
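Further: OD595 on entry to stationary phase over no-drug wells; at most 1.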

CN(C)[C@@H]1C(O)=C(C(N)=O)C(=O)[C@@]2(O)C(O)=C3C(=O)c4c(O)ccc(Cl)c4[C@@](C)(O)[C@H]3C[C@@H]12 [Chlortetracycline] + COc1cc(Cc2cnc(N)nc2N)cc(OC)c1OC [Trimethoprim]
one replicate
Conditions | fitness
B. subtilis 168, first compound 0.0475 µg/mL, partner 0.1 µg/mL | 0.82
B. subtilis 168, first compound 0.0475 µg/mL, partner 0.2 µg/mL | 0.735
B. subtilis 168, first compound 0.0475 µg/mL, partner 0.4 µg/mL | 0.637
B. subtilis 168, first compound 0.0475 µg/mL, partner 1 µg/mL | 0.296
B. subtilis 168, first compound 0.0475 µg/mL, partner 2 µg/mL | 0.305
B. subtilis 168, first compound 0.095 µg/mL, partner 0.1 µg/mL | 0.81
B. subtilis 168, first compound 0.095 µg/mL, partner 0.2 µg/mL | 0.707
B. subtilis 168, first compound 0.095 µg/mL, partner 0.4 µg/mL | 0.531
B. subtilis 168, first compound 0.095 µg/mL, partner 1 µg/mL | 0.132
B. subtilis 168, first compound 0.095 µg/mL, partner 2 µg/mL | 0.119
B. subtilis 168, first compound 0.19 µg/mL, partner 0.1 µg/mL | 0.599
B. subtilis 168, first compound 0.19 µg/mL, partner 0.2 µg/mL | 0.421
B. subtilis 168, first compound 0.19 µg/mL, partner 0.4 µg/mL | 0.279
B. subtilis 168, first compound 0.19 µg/mL, partner 1 µg/mL | 0.0652
B. subtilis 168, first compound 0.19 µg/mL, partner 2 µg/mL | 0.0699
S. aureus DSM 20231, first compound 0.006 µg/mL, partner 0.125 µg/mL | 0.656
S. aureus DSM 20231, first compound 0.006 µg/mL, partner 0.25 µg/mL | 0.606
S. aureus DSM 20231, first compound 0.006 µg/mL, partner 0.5 µg/mL | 0.509
S. aureus DSM 20231, first compound 0.048 µg/mL, partner 0.125 µg/mL | 0.0947

fitness
Conditions | partner 0.125 µg/mL | partner 0.25 µg/mL | partner 0.5 µg/mL | partner 1 µg/mL
B. subtilis 168, first compound 0.0475 µg/mL | 0.762 | 0.62 | – | –
B. subtilis 168, first compound 0.095 µg/mL | 0.673 | 0.548 | – | –
B. subtilis 168, first compound 0.19 µg/mL | 0.52 | 0.406 | 0.279 | –
S. aureus DSM 20231, first compound 0.012 µg/mL | 0.47 | 0.545 | 0.36 | 0.0767
S. aureus DSM 20231, first compound 0.024 µg/mL | 0.159 | – | 0.171 | 0.0593
S. aureus DSM 20231, first compound 0.048 µg/mL | – | 0.117 | 0.0724 | 0.042

CN(C)[C@@H]1C(O)=C(C(N)=O)C(=O)[C@@]2(O)C(O)=C3C(=O)c4c(O)ccc(Cl)c4[C@@](C)(O)[C@H]3C[C@@H]12 [Chlortetracycline] + CN[C@H](CC(C)C)C(=O)N[C@H]1C(=O)N[C@@H](CC(N)=O)C(=O)N[C@H]2C(=O)N[C@H]3C(=O)N[C@H](C(=O)N[C@H](C(=O)O)c4cc(O)cc(O)c4-c4cc3ccc4O)[C@H](O)c3ccc(c(Cl)c3)Oc3cc2cc(c3O[C@@H]2O[C@H](CO)[C@@H](O)[C@H](O)[C@H]2O[C@H]2C[C@](C)(N)[C@H](O)[C@H](C)O2)Oc2ccc(cc2Cl)[C@H]1O [Vancomycin]
S. aureus DSM 20231, first compound 0.006 µg/mL, one replicate
Conditions | fitness
partner 0.1875 µg/mL | 0.806
partner 0.375 µg/mL | 0.776
partner 0.75 µg/mL | 0.79

Conditions | fitness
S. aureus DSM 20231, first compound 0.012 µg/mL, partner 0.1875 µg/mL | 0.541
S. aureus DSM 20231, first compound 0.012 µg/mL, partner 0.375 µg/mL | 0.499
S. aureus DSM 20231, first compound 0.012 µg/mL, partner 0.75 µg/mL | 0.548
S. aureus DSM 20231, first compound 0.024 µg/mL, partner 0.375 µg/mL | 0.28
S. aureus DSM 20231, first compound 0.048 µg/mL, partner 0.1875 µg/mL | 0.103
S. aureus DSM 20231, first compound 0.048 µg/mL, partner 0.375 µg/mL | 0.0854
S. aureus DSM 20231, first compound 0.048 µg/mL, partner 0.75 µg/mL | 0.0806
S. pneumoniae D39V, first compound 0.012 µg/mL, partner 0.03125 µg/mL | 0.883
S. pneumoniae D39V, first compound 0.012 µg/mL, partner 0.0625 µg/mL | 0.903
S. pneumoniae D39V, first compound 0.012 µg/mL, partner 0.125 µg/mL | 0.706
S. pneumoniae D39V, first compound 0.024 µg/mL, partner 0.03125 µg/mL | 0.832
S. pneumoniae D39V, first compound 0.024 µg/mL, partner 0.0625 µg/mL | 0.829
S. pneumoniae D39V, first compound 0.048 µg/mL, partner 0.03125 µg/mL | 0.734
S. pneumoniae D39V, first compound 0.048 µg/mL, partner 0.0625 µg/mL | 0.688
S. pneumoniae D39V, first compound 0.375 µg/mL, partner 0.125 µg/mL | 0.0536
S. pneumoniae D39V, first compound 0.375 µg/mL, partner 0.25 µg/mL | 0.0553
S. pneumoniae D39V, first compound 0.375 µg/mL, partner 0.5 µg/mL | 0.0628
S. pneumoniae D39V, first compound 0.75 µg/mL, partner 0.125 µg/mL | 0.0485
S. pneumoniae D39V, first compound 0.75 µg/mL, partner 0.25 µg/mL | 0.0618
S. pneumoniae D39V, first compound 0.75 µg/mL, partner 0.5 µg/mL | 0.0842
S. pneumoniae D39V, first compound 1.5 µg/mL, partner 0.125 µg/mL | 0.0391
S. pneumoniae D39V, first compound 1.5 µg/mL, partner 0.25 µg/mL | 0.0305
S. pneumoniae D39V, first compound 1.5 µg/mL, partner 0.5 µg/mL | 0.0442

CC(=O)Oc1ccccc1C(=O)O [Acetylsalicylic acid] + CCC[C@@H]1C[C@@H](C(=O)N[C@@H]([C@H]2O[C@H](SC)[C@H](O)[C@@H](O)[C@H]2O)[C@@H](C)O)N(C)C1 [Lincomycin]
fitness
Conditions | partner 0.1 µg/mL | partner 0.2 µg/mL | partner 0.215 µg/mL | partner 0.4 µg/mL | partner 0.43 µg/mL | partner 0.8 µg/mL | partner 0.86 µg/mL
S. aureus DSM 20231, first compound 250 µg/mL | 0.863 | 0.84 | – | – | – | – | –
S. aureus DSM 20231, first compound 500 µg/mL | 0.81 | 0.795 | – | – | – | – | –
S. aureus DSM 20231, first compound 1000 µg/mL | – | – | – | 0.204 | – | – | –
S. pneumoniae D39V, first compound 250 µg/mL | – | 0.528 | 0.866 | 0.389 | 0.748 | 0.116 | 0.377
S. pneumoniae D39V, first compound 500 µg/mL | – | 0.455 | 0.824 | 0.368 | 0.749 | 0.0711 | 0.389
S. pneumoniae D39V, first compound 1000 µg/mL | – | 0.344 | 0.841 | 0.213 | 0.746 | 0.0378 | 0.35

CC(=O)Oc1ccccc1C(=O)O [Acetylsalicylic acid] + Cc1onc(-c2ccccc2)c1C(=O)N[C@@H]1C(=O)N2[C@@H]1SC(C)(C)[C@@H]2C(=O)O [Oxacillin]
fitness
Conditions | first compound 250 µg/mL | first compound 500 µg/mL | first compound 1000 µg/mL
S. aureus DSM 20231, partner 0.0156 µg/mL | 0.763 | 0.656 | 0.561
S. aureus DSM 20231, partner 0.0312 µg/mL | 0.583 | 0.548 | 0.519
S. aureus DSM 20231, partner 0.0625 µg/mL | 0.494 | 0.508 | 0.393
S. pneumoniae D39V, partner 0.005 µg/mL | 0.987 | 0.959 | 0.921
S. pneumoniae D39V, partner 0.01 µg/mL | 0.969 | 0.984 | –
S. pneumoniae D39V, partner 0.02 µg/mL | 0.886 | 0.91 | –
S. pneumoniae D39V, partner 0.04 µg/mL | 0.501 | 0.643 | –

CC(=O)Oc1ccccc1C(=O)O [Acetylsalicylic acid] + CN(C)[C@@H]1C(O)=C(C(N)=O)C(=O)[C@@]2(O)C(O)=C3C(=O)c4c(O)ccc(Cl)c4[C@@](C)(O)[C@H]3C[C@@H]12 [Chlortetracycline]
S. aureus DSM 20231, partner 0.006 µg/mL, one replicate
Conditions | fitness
first compound 250 µg/mL | 0.686
first compound 500 µg/mL | 0.525
first compound 1000 µg/mL | 0.342

fitness
Conditions | partner 0.012 µg/mL | partner 0.024 µg/mL | partner 0.048 µg/mL | partner 0.375 µg/mL | partner 0.75 µg/mL | partner 1.5 µg/mL
S. aureus DSM 20231, first compound 250 µg/mL | 0.525 | – | – | – | – | –
S. aureus DSM 20231, first compound 500 µg/mL | 0.467 | 0.221 | 0.0964 | – | – | –
S. aureus DSM 20231, first compound 1000 µg/mL | 0.21 | 0.0899 | 0.0347 | – | – | –
S. pneumoniae D39V, first compound 250 µg/mL | 0.842 | 0.658 | 0.322 | 0.123 | 0.119 | 0.101
S. pneumoniae D39V, first compound 500 µg/mL | 0.831 | 0.606 | 0.281 | 0.129 | 0.0804 | 0.138
S. pneumoniae D39V, first compound 1000 µg/mL | 0.669 | 0.47 | 0.297 | 0.0772 | 0.0378 | 0.0721

CC(=O)Oc1ccccc1C(=O)O [Acetylsalicylic acid] + C[n+]1ccc(-c2cc[n+](C)cc2)cc1 [Paraquat]
fitness
Conditions | partner 1.25 µg/mL | partner 1.5 µg/mL | partner 2.5 µg/mL | partner 3 µg/mL | partner 5 µg/mL | partner 6 µg/mL
S. aureus DSM 20231, first compound 250 µg/mL | 0.877 | – | 0.868 | – | 0.861 | –
S. aureus DSM 20231, first compound 500 µg/mL | 0.823 | – | 0.807 | – | 0.774 | –
S. pneumoniae D39V, first compound 250 µg/mL | – | 0.972 | – | 0.954 | – | 0.934
S. pneumoniae D39V, first compound 500 µg/mL | – | 0.969 | – | 0.938 | – | 0.872
S. pneumoniae D39V, first compound 1000 µg/mL | – | 0.916 | – | 0.873 | – | 0.772
